Measured values published in patent US20150126581A1, “MicroRNAs and Uses Thereof” (The University of Western Australia, priority 2012, published 2015).

Tests used:
[1] = tested on: obese diabetic mice; conditions: cited from earlier work
[2] = tested on: HeLa cells; experiment: CellTiter 96 AQueous One (MTS) endpoint growth assay with mimosine; assay type: cell-based, human; conditions: mimosine 50 and 250 μM, 3 d exposure (Day 5 post miRNA transfection)
Method: Endpoint growth assays were then performed using the CellTiter 96® AQueous One Solution Cell Proliferation System (MTS) (Promega, USA) to determine effects of miRNAs and mimosine on cell proliferation. HeLa cells were transiently transfected with miRNA negative control or hsa-miR-331-3p/hsa-miR-642-5p as described above, and 5000 transiently transfected HeLa cells were plated in 96 well plates. Plates were incubated in a 37° C. incubator (5% CO2) for 2 days and then exposed for a further 3 days to mimosine (0, 50 or 250 μM). Media was then replaced with a MTS substrate/growth media mixture (180 μL of growth media, 20 μL MTS reagent) and left for 30 min at 37° C. Absorbance was measured using a Fluostar Optima Instrument (Walker scientific) at 450 nm.

[3] = tested on: HeLa cells; experiment: Observation of HeLa cell morphology and size under mimosine; assay type: cell-based, human; conditions: increasing concentrations of mimosine
Method: The effect of the combination of hsa-miR-331-3p and hsa-miR-642-5p on the transient effects of the DOHH inhibitor mimosine in HeLa cells was assessed. Initially, the xCELLigence™ System was used but growth curves could not be established using mimosine that reflected the observed changes in cell viability (data not shown). […] This was attributed to the ability of mimosine to arrest cell in […] and increase cell size by up to 25%.

[4] = tested on: HeLa cells; conditions: stated ability of mimosine (arrest in G1); cited from earlier work

Structure (SMILES) | Glucose tolerance [1] | Insulin release [1] | β cell mass [1] | HeLa cell proliferation (MTS), mimosine alone [2] | HeLa cell morphology [3] | Increase of cell size [4]
N=C(N)NCCCCCCCN [GC7, N1-guanyl-1,7-diaminoheptane] | improved glucose tolerance | increased insulin release | enhanced β cell mass | – | – | –
NC(Cn1ccc(=O)c(O)c1)C(=O)O (stereo not drawn) [mimosine] | – | – | – | significant block of cell proliferation | changed the morphology of HeLa cells from a spindle like epithelial morphology to a large, round and flattened morphology | up to 25%
